Results: US11370774B2, “Substituted benzofuran, benzopyrrole, benzothiophene, and structurally related complement inhibitors” (BioCryst Pharmaceuticals, Inc., priority 2018, dated 2022)

Target: Factor D (Homo sapiens (Human), UniProt P00746)
Assay: Factor D esterolytic assay (Z-Lys-SBzl substrate, DTNB, 405 nm)
Format: biochemical
Details: Z-Lys-SBzl 1.29 mM, pH 7.5, 10% DMSO, tested a minimum of three times, read-out: Measured Ki (IC50) Value for Compounds: IC50
Method in brief: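 Thioester hydrolysis (Z-Lys-SBzl, 1.29 mM) by human Factor D ([…]) detected through DTNB color at 405 nm over 600 sec, minus 690 nm background. Buffer: 100 mM HEPES pH 7.5, 500 mM NaCl, 10% DMSO; optional room-temperature preincubation before substrate. IC50 derived from percent rate inhibition; at least three runs.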

Factor D, sequence (P00746 26-253): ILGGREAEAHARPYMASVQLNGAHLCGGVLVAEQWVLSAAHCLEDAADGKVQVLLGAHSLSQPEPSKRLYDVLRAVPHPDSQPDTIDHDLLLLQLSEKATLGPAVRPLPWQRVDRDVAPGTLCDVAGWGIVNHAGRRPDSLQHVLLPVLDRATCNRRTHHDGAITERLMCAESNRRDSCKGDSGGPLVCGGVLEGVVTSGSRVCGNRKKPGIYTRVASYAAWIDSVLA

SMILES	IC50 [nM]
NCc1ccc(CC(=O)O)c(OCc2cc(-c3ccnc(CN)c3F)c3occc3c2)c1 [Compound 405e, 2-(4-(aminomethyl)-2-((7-(2-(aminomethyl)-3-fluoropyridin-4-yl)benzofuran-5-yl)methoxy)phenyl)acetic acid]	< 1000
NCc1cccc(-c2cc(COc3ccccc3CC(=O)O)cc3cc(CN)oc23)c1 [Compound 406e, 2-(2-((2-(aminomethyl)-7-(3-(aminomethyl)phenyl)benzofuran-5-yl)methoxy)phenyl)acetic acid]	< 1000
NCc1cccc(-c2cc(NC(=O)N3CCCC3CC(=O)O)cc3ccoc23)c1 (centres unmarked) [Compound 407d, 2-(1-((7-(3-(aminomethyl)phenyl)benzofuran-5-yl)carbamoyl)pyrrolidin-2-yl)acetic acid]	> 10000
NCc1cccc(-c2cc(NC(=O)[C@H]3CCCN3CC(=O)O)cc3ccoc23)c1 [Compound 408e, (R)-2-(2-((7-(3-(aminomethyl)phenyl)benzofuran-5-yl)carbamoyl)pyrrolidin-1-yl)acetic acid]	> 10000
Cc1cc2c(-c3cccc(CN)c3F)cc(COc3ccccc3CC(=O)O)cc2o1 [Compound 409f, 2-(2-((4-(3-(aminomethyl)-2-fluorophenyl)-2-methylbenzofuran-6-yl)methoxy)phenyl)acetic acid]	< 1000
NCc1cccc(-c2cc(COc3cc(C(N)=O)ccc3CC(=O)O)cc3ccoc23)c1F [Compound 411e, 2-(2-((7-(3-(aminomethyl)-2-fluorophenyl)benzofuran-5-yl)methoxy)-4-carbamoylphenyl)acetic acid]	< 1000
Cc1c(COc2ccccc2CC(=O)O)cc2ccoc2c1-c1cccc(CN)c1 [Compound 413m, 2-(2-((7-(3-(aminomethyl)phenyl)-6-methylbenzofuran-5-yl)methoxy)phenyl)acetic acid]	< 1000
Cc1c(COc2ccccc2CC(=O)O)cc(-c2cccc(CN)c2)c2occc12 [Compound 413n, 2-(2-((7-(3-(aminomethyl)phenyl)-4-methylbenzofuran-5-yl)methoxy)phenyl)acetic acid]	< 1000
N#Cc1ccc(CC(=O)O)c(OCc2cc(-c3cccc(CN)c3F)c3occc3c2)c1 [Compound 414b, 2-(2-((7-(3-(aminomethyl)-2-fluorophenyl)benzofuran-5-yl)methoxy)-4-cyanophenyl)acetic acid]	< 1000
COCc1cc2cc(COc3cc(C)ccc3CC(=O)O)cc(-c3cccc(CN)c3)c2o1 [Compound 415e, 2-(2-((7-(3-(aminomethyl)phenyl)-2-(methoxymethyl)benzofuran-5-yl)methoxy)-4-methylphenyl)acetic acid]	< 1000
COCc1cc2cc(COc3cc(C#N)ccc3CC(=O)O)cc(-c3cccc(CN)c3F)c2o1 [Compound 416d, 2-(2-((7-(3-(aminomethyl)-2-fluorophenyl)-2-(methoxymethyl)benzofuran-5-yl)methoxy)-4-cyanophenyl)acetic acid]	< 1000
COCc1cc2cc(COc3cc(NC(C)=O)ccc3CC(=O)O)cc(-c3cccc(CN)c3)c2o1 [Compound 417e, 2-(4-acetamido-2-((7-(3-(aminomethyl)phenyl)-2-(methoxymethyl)benzofuran-5-yl)methoxy)phenyl)acetic acid]	< 1000
NCc1cccc(-c2cc(NC(=O)N3CCC[C@H]3C(=O)NCc3cccc(Cl)c3F)cc3ccoc23)c1 [Compound 418c, (S)—N1-(7-(3-(aminomethyl)phenyl)benzofuran-5-yl)-N2-(3-chloro-2-fluorobenzyl)pyrrolidine-1,2-dicarboxamide]	< 1000
Cc1cc2cc(COc3cc(C#N)ccc3CC(=O)O)cc(-c3cccc(CN)c3)c2o1 [Compound 419c, 2-(2-((7-(3-(aminomethyl)phenyl)-2-methylbenzofuran-5-yl)methoxy)-4-cyanophenyl)acetic acid]	< 1000
Cc1ccc(CC(=O)O)c(OCc2cc(-c3cccc(CN)c3)c3oc(CO)cc3c2)c1 [Compound 420e, 2-(2-((7-(3-(aminomethyl)phenyl)-2-(hydroxymethyl)benzofuran-5-yl)methoxy)-4-methylphenyl)acetic acid]	< 1000
CC(=O)Nc1ccc(CC(=O)O)c(OCc2cc(-c3cccc(CN)c3)c3oc(CO)cc3c2)c1 [Compound 421e, 2-(4-acetamido-2-((7-(3-(aminomethyl)phenyl)-2-(hydroxymethyl)benzofuran-5-yl)methoxy)phenyl)acetic acid]	< 1000
N#Cc1ccc(CC(=O)O)c(OCc2cc(-c3cccc(CN)c3)c3oc(CO)cc3c2)c1 [Compound 422e, 2-(2-((7-(3-(aminomethyl)phenyl)-2-(hydroxymethyl)benzofuran-5-yl)methoxy)-4-cyanophenyl)acetic acid]	< 1000
Cc1ccc(CC(=O)O)c(OCc2cc(-c3cccc(CN)c3)c3oc(C)cc3c2)c1 [Compound 423c, 2-(2-((7-(3-(aminomethyl)phenyl)-2-methylbenzofuran-5-yl)methoxy)-4-methylphenyl)acetic acid]	< 1000
NCc1cccc(-c2cc(COc3cc(C(N)=O)ccc3CC(=O)O)cc3cc(CO)oc23)c1 [Compound 424d, 2-(2-((7-(3-(aminomethyl)phenyl)-2-(hydroxymethyl)benzofuran-5-yl)methoxy)-4-carbamoylphenyl)acetic acid]	< 1000
Cc1oc2c(-c3cccc(CN)c3)cc(COc3ccccc3CC(=O)O)cc2c1Br [Compound 425f, 2-(2-((7-(3-(aminomethyl)phenyl)-3-bromo-2-methylbenzofuran-5-yl)methoxy)phenyl)acetic acid]	< 1000
CC(=O)Nc1ccc(CC(=O)O)c(OCc2cc(-c3cccc(CN)c3)c3oc(C)cc3c2)c1 [Compound 426c, 2-(4-acetamido-2-((7-(3-(aminomethyl)phenyl)-2-methylbenzofuran-5-yl)methoxy)phenyl)acetic acid]	< 1000
Cc1cc(CC(=O)O)c(OCc2cc(-c3cccc(CN)c3F)c3occc3c2)cc1C [Compound 427b, 2-(2-((7-(3-(aminomethyl)-2-fluorophenyl)benzofuran-5-yl)methoxy)-4,5-dimethylphenyl)acetic acid]	< 1000
Cc1cc(CC(=O)O)c(OCc2cc(-c3ccnc(CN)c3)c3occc3c2)cc1C [Compound 428c, 2-(2-((7-(2-(aminomethyl)pyridin-4-yl)benzofuran-5-yl)methoxy)-4,5-dimethylphenyl)acetic acid]	< 1000
Cc1cc2cc(COc3cc(C(N)=O)ccc3CC(=O)O)cc(-c3cccc(CN)c3)c2o1 [Compound 429c, 2-(2-((7-(3-(aminomethyl)phenyl)-2-methylbenzofuran-5-yl)methoxy)-4-carbamoylphenyl)acetic acid]	< 1000

Other lines, results leading:

IC50 [nM]	SMILES
< 1000	Cc1cc(CC(=O)O)c(OCc2cc(-c3ccnc(CN)c3F)c3occc3c2)cc1C [Compound 430c, 2-(2-((7-(2-(aminomethyl)-3-fluoropyridin-4-yl)benzofuran-5-yl)methoxy)-4,5-dimethylphenyl)acetic acid]
< 1000	NCc1nccc(-c2cc(COc3ccccc3CC(=O)O)cc3ccsc23)c1F [Compound 431c, 2-(2-((7-(2-(aminomethyl)-3-fluoropyridin-4-yl)benzo[b]thiophen-5-yl)methoxy)phenyl)acetic acid]
< 1000	CC(=O)Nc1ccc(CC(=O)O)c(OCc2cc(-c3cccc(CN)c3F)c3occc3c2)c1 [Compound 432c, 2-(4-acetamido-2-((7-(3-(aminomethyl)-2-fluorophenyl)benzofuran-5-yl)methoxy)phenyl)acetic acid]
< 1000	N#Cc1ccc(CC(=O)O)c(OCc2cc(-c3ccnc(CN)c3)c3occc3c2)c1 [Compound 433c, 2-(2-((7-(2-(aminomethyl)pyridin-4-yl)benzofuran-5-yl)methoxy)-4-cyanophenyl)acetic acid]
< 1000	N#Cc1ccc(CC(=O)O)c(OCc2cc(-c3ccnc(CN)c3F)c3occc3c2)c1 [Compound 435b, 2-(2-((7-(2-(aminomethyl)-3-fluoropyridin-4-yl)benzofuran-5-yl)methoxy)-4-cyanophenyl)acetic acid]
< 1000	CC(=O)Nc1ccc(CC(=O)O)c(OCc2cc(-c3ccnc(CN)c3)c3occc3c2)c1 [Compound 437c, 2-(4-acetamido-2-((7-(2-(aminomethyl)pyridin-4-yl)benzofuran-5-yl)methoxy)phenyl)acetic acid]
< 1000	CC(=O)Nc1ccc(CC(=O)O)c(OCc2cc(-c3ccnc(CN)c3F)c3occc3c2)c1 [Compound 438c, 2-(4-acetamido-2-((7-(2-(aminomethyl)-3-fluoropyridin-4-yl)benzofuran-5-yl)methoxy)phenyl)acetic acid]
< 1000	COCc1cc2cc(COc3cc(C(N)=O)ccc3CC(=O)O)cc(-c3cccc(CN)c3F)c2o1 [Compound 439c, 2-(2-((7-(3-(aminomethyl)-2-fluorophenyl)-2-(methoxymethyl)benzofuran-5-yl)methoxy)-4-carbamoylphenyl)acetic acid]
< 1000	COCc1cc2cc(COc3cc(CN)ccc3CC(=O)O)cc(-c3cccc(CN)c3F)c2o1 [Compound 440c, 2-(4-(aminomethyl)-2-((7-(3-(aminomethyl)-2-fluorophenyl)-2-(methoxymethyl)benzofuran-5-yl)methoxy)phenyl)acetic acid]
< 1000	COCc1cc2cc(COc3cc(NC(C)=O)ccc3CC(=O)O)cc(-c3cccc(CN)c3F)c2o1 [Compound 441c, 2-(4-acetamido-2-((7-(3-(aminomethyl)-2-fluorophenyl)-2-(methoxymethyl)benzofuran-5-yl)methoxy)phenyl)acetic acid]
< 1000	Cc1ccc(CC(=O)O)c(OCc2cc(-c3cccc(CN)c3)c3sccc3c2)c1 [Compound 443i, 2-(2-((7-(3-(aminomethyl)phenyl)benzo[b]thiophen-5-yl)methoxy)-4-methylphenyl)acetic acid]
